Reference: patent US20130281400A1, “Metabolic Downregulation for Cell Survival” (Wake Forest University Health Sciences, priority 2010, published 2013)

Columns and labels:
[1] = test system: C2C12 cells, murine myoblasts; assay: MTS assay of metabolic activity of viable cells under hypoxia (0.1% O2) with daily adenosine; assay type: cell-based
Experimental: 500 μL of a cell suspension (C2C12 cells, murine myoblasts) in high glucose Dulbecco's modified Eagle's medium (DMEM, Gibco) containing 10% FBS, 500 U/mL penicillin and 500 μg/mL streptomycin was placed in each well of a 48-well culture plate at a density of 1052 (FIG. 2) and 2105 (FIG. 3) cells/cm^2. Cells were incubated for 24 hr in normoxic conditions (21% O2, 37° C.) prior to placement in a hypoxic chamber. At day 0, the plates designated as the hypoxic group were transferred to the hypoxic chamber (0.1% O2). […] Another group receiving daily doses of adenosine ([…], achieved by serial dilution) was incubated for up to 7 days under hypoxia and then placed back into normoxic conditions without additional supply of adenosine. Adenosine was refreshed by the daily exchange of media in which adenosine was completely dissolved. Media to be used under hypoxia was placed in the hypoxic chamber 24 hr prior to use for deoxygenation down to 2% O2. The metabolic activity of viable cells at each pre-determined time point was assessed using an MTS assay, which measures mitochondrial activity of cells. Adenosine was used with C2C12 at passage 17, the murine myoblast cell lines, because of their relatively high metabolic activity and proliferation rate. […] Based on the microscopic observations of these cell stained with Giemsa, it was not seen that whole population of cells completely reached the state of necrosis up to the latest time point tested, as a few populations of attached cells were still observed. It is expected that those remaining cells eventually die. […] The effect of dose was also evaluated on a degree of cellular activity (FIG. 3). […] Based on this outcome, the minimum effective concentration of adenosine appears to be about 1 mM under this experimental condition. The reason for 1 mM treated cells not declining up to the duration tested may potentially have been the lower starting number of cells. […] Finally, the long term effect of adenosine was tested on resuming its proliferation after its supply is stopped. The duration tested under the effect of adenosine was 22 days, as the angiogenesis process is known to take 2-3 weeks (Cotton, 1996, Trends Biotechnol, 14(5):158-62; […] et al., 1996, Biomaterials, 17(3):277-84) for completion.

muscle tissue = assay: adenosine injected into muscle tissue; assay type: in vivo
Excerpt: Adenosine, a nucleoside known for its function as an energy transferring molecule, is also known to function as a modulator of hypoxia-induced ion-channel arrest, which eventually leads to lowering of ATP consumption, and thus oxygen demand. Moreover, it is also known to stimulate angiogenesis. Thus, the present invention provides for the application of adenosine to cell-seeded scaffolds under the hypoxic condition to improve cell survival rate via the downregulation of metabolic rate, and thus lowering oxygen demand and consumption. As contemplated herein, agonists to adenosine may also be used in a similar manner to lower the oxygen demand of cells and tissues. […] Adenosine may be administered alone as a composition or within a formulation, as would be understood by those skilled in the art.

Nc1ncnc2c1ncn2[C@@H]1O[C@H](CO)[C@@H](O)[C@H]1O [adenosine]
cellular metabolic activity pattern at 1 mM adenosine ([1]; 1 mM adenosine, hypoxia, FIG. 3): showed a similar pattern with the cells grown in the hypoxic condition without supply of adenosine
long term effect: resuming proliferation after adenosine supply is stopped ([1]; 22 days under the effect of adenosine, various doses, FIG. 4): still demonstrated the ability to restore its normal proliferation rate
cellular (metabolic) activity under hypoxic conditions ([1]; C2C12 passage 17, hypoxia 0.1% O2, daily adenosine up to 7 days, FIG. 2): maintained a steady state of cellular activity
effect of dose on degree of cellular activity ([1]; adenosine dose increased from 1 to 10 mM, hypoxic conditions, FIG. 3): an escalation of steady hypometabolic state was maintained under hypoxic conditions
resumption of normal metabolic activity after removal of adenosine ([1]; adenosine removed at day 7, cells returned to normoxic conditions, FIG. 2): resumed their normal metabolic activity two days after adenosine was removed at day 7
minimum effective concentration of adenosine ([1]; hypoxic conditions, dose study, FIG. 3): about 1 mM
cellular viability and tissue architecture (muscle tissue): preservation of cellular viability and tissue architecture
